Three compounds from US20110104161A1, “COMBINATIONS VEGF(R) INHIBITORS AND HEPATOCYTE GROWTH FACTOR (C-MET) INHIBITORS FOR THE TREATMENT OF CANCER” (priority 2008, published 2011) can be followed below.

In experiment [1] the test system is 786-0 human renal cell adenocarcinoma cells. The experiment is described as follows: 786-0-S4 renal cell adenocarcinoma subcutaneous xenograft tumor growth in athymic nude mice (Example 7). It is filed as in vivo. Particulars: AMG 706 75 mpk/dose PO, Amgen Compound 3 100 mpk/dose PO, or combination, once daily; p≦0.0322 (AMG 706, combination), p=0.0519 (Amgen Compound 3). The source says:
786-0-S4 (786-0 human renal cell adenocarcinoma cells from ATCC that were passaged in vivo) were expanded in culture, harvested and injected subcutaneously into 9 week old female athymic nude mice (Harlan Sprague Dawley) (n=10/group). Administration of the VEGFR inhibitor, AMG 706 (75 mpk/dose, PO), or the c-Met inhibitor, Amgen Compound 3 (100 mpk/dose, PO), or a combination of AMG 706 (75 mpk/dose, PO) and Amgen Compound 3 (100 mpk/dose, PO) began on day 20 post tumor cell implantation. AMG 706 was subsequently administered once daily by oral gavage (75 mpk/dose) and Amgen Compound 3 was administered once daily by oral gavage (100 mpk/dose) for the duration of the experiment. Progression of tumor growth was assessed by three dimensional caliper measurements and recorded as a function of time. Statistical analysis was performed by repeated measures analysis of variance (RMANOVA) followed by Scheffe post hoc testing for multiple comparisons. Vehicles (Acid water (pH 2.2) and 2% HPMC 1% Tween 80) served as negative controls for AMG 706 and Amgen Compound 3, respectively. […] Body weights were not negatively impacted by any treatment. Arrow and Rx denote the start of dosing.

Experiment [2] relates to U-87 MG human glioblastoma tumor cells. Kind of experiment: U-87 MG glioblastoma subcutaneous xenograft tumor growth in nude mice (Example 2). The experiment is classed as in vivo. The procedure: U-87 MG human glioblastoma tumor cells (from ATCC) were expanded in culture, harvested and injected subcutaneously into 5-8 week old female nude mice (CD1 NU/NU, Charles River Laboratories) (n=10/group). Treatment began on day 14 (average tumor volume 200 mm^3) with a VEGFR inhibitor, AMG 706, by oral gavage (75 mg/kg/dose/once per day) or an HGF/SF:c-Met inhibitor, AMG 102 by intraperitoneal injection, (3 or 10 μg/dose/twice per week) or a combination of AMG 706 and AMG 102 at the same doses and schedules. Vehicle alone (acid water pH 2.0) and IgG2 isotype control antibody (30 μg/dose/twice per week) served as negative controls for the VEFGFR inhibitor and the HGF/SF:c-Met inhibitor, respectively. Progression of tumor growth was followed by three dimensional caliper measurements and recorded as a function of time. Initial statistical analysis was done by repeated measures analysis of variance (ANOVA), followed by Scheffé post hoc testing for multiple comparisons. […] The combination of AMG 706 and AMG 102 provided no additional benefit compared to AMG 102 monotherapy. Body weights were not negatively impacted by any treatment. Arrow and Rx denote start of dosing.

`CC1(C)CNc2cc(NC(=O)c3cccnc3NCc3ccncc3)ccc21` [AMG 706, N-(2,3-dihydro-3,3-dimethyl-1H-indol-6-yl)-2-[(4-pyridinylmethyl)amino]-3-pyridinecarboxamide]: the “tumor growth compared to the vehicle” value in experiment [1] was “significantly inhibited tumor growth”. Besides, the “tumor growth compared with vehicle control group” value in experiment [2] (AMG 706 75 mg/kg once per day oral gavage) is “no significant effect on tumor growth”. In the case of `Cc1c(C(=O)Nc2ccc(Oc3ccnc(NC(=O)N4CCOCC4)c3)c(F)c2)c(=O)n(-c2ccccc2)n1C` [Amgen Compound 3, N-(4-(4-(1,5-dimethyl-3-oxo-2-phenyl-2,3-dihydro-1H-pyrazole-4-carboxamido)-2-fluorophenoxy)pyridin-2-yl)morpholine-4-carboxamide], the “tumor growth compared to the vehicle” value in experiment [1] was “did not significantly inhibit tumor growth”. Regarding “AMG 102: anti-HGF/SF antibody, identified in US 2005/0118643 and WO 2005/017107 as antibody 2.12.1”, the “tumor growth compared to the isotype control group” value in experiment [2] (AMG 102 3 or 10 μg per dose twice per week i.p., p<0.0005) is on record as “significantly inhibited tumor growth”.
